Source: US20260070887A1 (Shenzhen Zhongge Biological Technology Co., Ltd., priority 2022, published 2026)
pIC50: −log10 of the molar value. Where two headings read alike, the source gives them in different places.

Assays:
HT-29 cells = assay: HT-29 cell proliferation (Cell Titer-Glo, 6 days); assay type: cell-based
Method: The inhibitory effect on the KIF18A target by the compounds of the present disclosure was evaluated by testing the inhibitory effect on proliferation of HT-29 cells by the compounds of the present disclosure.
HT-29 (ATCC, HTB-38) cells were cultured in McCoy's 5a complete medium (Gibco, 12330-031) containing 10% fetal bovine serum (Gibco, 10099-141C), 100 U penicillin and […] streptomycin (Gibco, 15140-122). The Promega kit Cell Titer-Glo (Promega: G7572) was used in this method for test. • 1. HT-29 cells were cultured in T75 cell flasks (Corning, 430641) and the medium was placed in a 37° C., 5% CO2 incubator. Cells were passaged when reaching a cell density of 70%-80%, approximately twice per week. • 2. To perform the experiment, the test compounds were dissolved in DMSO to prepare a 10 mM stock solution, and the test compounds were added to the 384-well cell test plate (Corning, 3765) at the predetermined concentration using ECHO. • 3. The cell culture flask was taken out, the medium was removed, and the cells were rinsed with PBS. Then 2 mL of trypsin (with 0.25% EDTA) was added, and the flask was placed in the incubator for digestion for 4 minutes. • 4. Digestion was stopped by adding 4 mL of complete medium and the cell suspension was transferred to a centrifuge tube and centrifuged at 1000 rpm for 4 minutes. • 5. The cells were resuspended in 6 mL of complete medium, followed by cell counting. The cell density was adjusted to 4,170 cells/mL, and the cells were added to a 384-well plate at 60 μL/well. • 6. The 384-well plate was centrifuged at 500 rpm for 1 minute, and then placed in a 37° C., 5% CO2 incubator for 6 days of cultivation. • 7. Six days later, the cell culture plate was equilibrated for 10 minutes at room temperature, 25 μL of Cell Titer-Glo was added to each well, and the mixture was shaken and mixed well and let stand for 5 minutes. The luminescence values for samples in various wells were read using a microplate reader in Luminescence mode.
The percentage of inhibition of cell proliferation by the test compound at each concentration was calculated by comparing with the values of the control group (0.3% DMSO). The IC50 values of the compounds were obtained by concentration-inhibition rate nonlinear regression analysis of the test compounds using GraphPad Prism 9.

OVCAR-3 cells = assay: OVCAR-3 cell proliferation (Cell Titer-Glo, 10 days); assay type: cell-based, human
In short: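 400 cells per well were seeded onto pre-dispensed compound (final 0.12 nM to 10 μM) in RPMI-1640 with 20% FBS and insulin, then co-cultured for 10 days. Viability was read as Cell Titer-Glo luminescence, inhibition was taken against 0.1% DMSO control, and IC50 came from nonlinear concentration-inhibition regression.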

KIF18A = KIF18A (Homo sapiens (Human), UniProt Q8NI77); assay: KIF18A ATPase activity under tubulin stimulation (ADP-Glo assay); assay type: biochemical; conditions: KIF18A 30 nM, ATP 150 μM, pig microtubules
KIF18A, sequence (Q8NI77 whole entry): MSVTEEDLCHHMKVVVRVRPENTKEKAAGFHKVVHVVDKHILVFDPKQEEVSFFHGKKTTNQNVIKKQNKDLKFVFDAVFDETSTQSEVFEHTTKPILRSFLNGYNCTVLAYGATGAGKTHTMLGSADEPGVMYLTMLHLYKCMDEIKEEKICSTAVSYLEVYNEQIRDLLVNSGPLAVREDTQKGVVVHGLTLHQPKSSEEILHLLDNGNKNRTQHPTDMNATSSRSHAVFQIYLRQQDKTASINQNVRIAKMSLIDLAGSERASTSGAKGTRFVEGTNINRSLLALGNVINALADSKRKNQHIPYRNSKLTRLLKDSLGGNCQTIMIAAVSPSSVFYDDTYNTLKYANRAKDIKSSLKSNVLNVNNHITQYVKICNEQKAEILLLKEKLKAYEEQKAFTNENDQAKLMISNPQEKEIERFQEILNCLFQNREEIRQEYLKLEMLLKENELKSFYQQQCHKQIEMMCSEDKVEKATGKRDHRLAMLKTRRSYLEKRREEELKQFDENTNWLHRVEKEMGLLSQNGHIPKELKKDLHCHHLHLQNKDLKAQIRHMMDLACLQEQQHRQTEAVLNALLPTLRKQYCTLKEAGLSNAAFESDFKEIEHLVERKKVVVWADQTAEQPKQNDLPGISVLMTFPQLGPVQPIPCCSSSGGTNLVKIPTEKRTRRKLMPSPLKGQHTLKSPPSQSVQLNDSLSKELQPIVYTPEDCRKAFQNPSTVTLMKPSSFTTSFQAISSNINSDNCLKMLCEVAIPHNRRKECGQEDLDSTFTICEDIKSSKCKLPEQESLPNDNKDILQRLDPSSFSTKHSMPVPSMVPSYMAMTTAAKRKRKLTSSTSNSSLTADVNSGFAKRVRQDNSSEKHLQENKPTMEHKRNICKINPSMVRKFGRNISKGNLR
KIF18A, sequence (P02550 whole entry partner): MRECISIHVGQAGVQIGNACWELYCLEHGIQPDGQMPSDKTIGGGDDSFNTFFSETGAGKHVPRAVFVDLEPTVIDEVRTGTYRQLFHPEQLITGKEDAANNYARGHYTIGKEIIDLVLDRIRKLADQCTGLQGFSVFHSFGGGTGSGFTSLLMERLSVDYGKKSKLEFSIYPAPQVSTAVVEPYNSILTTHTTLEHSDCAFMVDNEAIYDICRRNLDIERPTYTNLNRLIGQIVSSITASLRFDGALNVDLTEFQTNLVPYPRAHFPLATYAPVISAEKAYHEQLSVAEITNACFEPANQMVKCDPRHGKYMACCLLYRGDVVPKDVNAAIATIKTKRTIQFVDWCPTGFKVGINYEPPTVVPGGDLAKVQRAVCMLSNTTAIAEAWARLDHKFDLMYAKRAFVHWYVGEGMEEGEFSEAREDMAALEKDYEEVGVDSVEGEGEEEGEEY
KIF18A, sequence (P02554 whole entry partner): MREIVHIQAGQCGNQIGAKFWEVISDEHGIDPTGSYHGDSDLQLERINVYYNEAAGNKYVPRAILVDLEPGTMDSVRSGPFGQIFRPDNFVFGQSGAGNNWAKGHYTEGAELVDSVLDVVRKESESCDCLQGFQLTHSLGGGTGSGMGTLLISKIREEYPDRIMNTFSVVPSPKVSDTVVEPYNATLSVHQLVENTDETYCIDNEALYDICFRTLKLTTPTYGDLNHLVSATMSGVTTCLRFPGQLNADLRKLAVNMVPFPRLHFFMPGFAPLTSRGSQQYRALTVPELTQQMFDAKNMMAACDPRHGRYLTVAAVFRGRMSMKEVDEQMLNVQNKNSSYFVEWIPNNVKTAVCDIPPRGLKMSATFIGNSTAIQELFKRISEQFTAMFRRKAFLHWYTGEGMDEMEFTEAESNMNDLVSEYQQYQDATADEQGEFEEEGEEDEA

PK study in ICR mice = assay type: in vivo, mouse; conditions: plasma, route and dose not given
Method: 6 ICR mice (male/female) were divided into two groups, administered orally and intravenously, respectively, with 3 mice/group. The mice were fasted for 10-14 hours prior to dosing with free access to water.
The test compound was weighed according to the administration dose, and prepared into a dose formulation at appropriate concentrations (for rats and mice, intravenous and oral administration at a volume of 5 mL/kg and 10 mL/kg, respectively), wherein the intravenous injection was a clear solution, and the oral preparation was a clear solution or a homogeneous suspension.
Animals were dosed by intravenous injection and oral gavage, and blood samples were collected at 0.033, 0.083, 0.25, 0.5, 1, 2, 4, 8, and 24 h after intravenous administration and 0.083, 0.25, 0.5, 1, 2, 4, 6, 8, and 24 h after oral administration. Whole blood was centrifuged at 6800 g for 6 min at 4° C. and the top plasma was stored in a −80° C. freezer for later analysis.
The DMSO stock solution of the test compound was diluted into a series of working solutions with a methanol or an acetonitrile solution, and added to a blank plasma matrix, and standard curves were generated and quality control samples were prepared. An appropriate volume of the plasma sample was taken and a suitable multiple of methanol or acetonitrile containing an internal standard was added for protein precipitation based on the response. After centrifugation of all samples at 18000 g for 10 min at 4° C., an appropriate amount of supernatant was taken for LC-MS/MS injection analysis.
Drug concentration-time curves in plasma were plotted according to test concentrations, and pharmacokinetic parameters were calculated using noncompartmental analysis by WinNonlin software, including: half-life (T½), area under the concentration-time curve from time zero to time t (AUCO-t), clearance (CL), volume of distribution at steady state (Vss) and bioavailability (F), with some of the test results shown in Table 4.

[1] = both sexes, mouse, read-out: AUC
[2] = both sexes, mouse, read-out: Cmax

Compound | pIC50 (KIF18A) | pIC50 (OVCAR-3 cells; Homo sapiens, OVCAR-3, 240 h) | pIC50 (OVCAR-3 cells) | other results
O=C(Nc1cccc2c1cc1n2CCC(F)(F)C1O)c1ccc(NS(=O)(=O)CCO)cc1N1CCC2(CC1)CC2 (single isomer, unassigned) [Compound 384-P2, N-(8,8-difluoro-9-hydroxy-6,7,8,9-tetrahydropyridino[1,2-a]indol-1-yl)-4-((2-hydroxyethyl)sulfonamido)-2-(6-azaspiro[2.5]oct-6-yl)benzamide] | 6.30 to 7.30 | – | ≥ 7.30 | pIC50 (HT-29 cells): ≥ 6.70
[2H]C([2H])([2H])OC1c2cc3c(NC(=O)c4ccc(NS(=O)(=O)CCO)cc4N4CCC5(CC4)CC5)cccc3n2CCC1(F)F (single isomer, unassigned) [Compound 385-P2, N-(8,8-difluoro-9-(methoxy-d3)-6,7,8,9-tetrahydropyridino[1,2-a]indol-1-yl)-4-((2-hydroxyethyl)sulfonamido)-2-(6-azaspiro[2.5]oct-6-yl)benzamide] | – | – | ≥ 7.30 | pIC50 (HT-29 cells): ≥ 6.70
[2H]C([2H])([2H])OC1c2cc3c(NC(=O)c4ccc(NS(=O)(=O)CCO)cc4N4CCC(=C(F)F)CC4)cccc3n2CCC1(F)F (single isomer, unassigned) [Compound 386-P2, N-(8,8-difluoro-9-(methoxy-d3)-6,7,8,9-tetrahydropyridino[1,2-a]indol-1-yl)-2-(4-(difluoromethylene)piperidin-1-yl)-4-((2-hydroxyethyl)sulfonamido)benzamide] | ≥ 7.30 | – | 6.30 to 7.30 | pIC50 (HT-29 cells): ≥ 6.70
O=C(Nc1cccc2c1nc1n2CCOC1)c1ccc(NS(=O)(=O)CCO)cc1N1CCC(=C(F)F)CC1 [Example 322, 2-(4-(difluoromethylene)piperidin-1-yl)-N-(3,4-dihydro-1H-benzo[4,5]imidazo[2,1-c][1,4]oxazin-9-yl)-4-((2-hydroxyethyl)sulfonamido)benzamide] | ≥ 7.30 | ≥ 7.30 | – | AUC (PK study in ICR mice; [1]): 12400 ng·h/mL; Cmax (PK study in ICR mice; [2]): 2420 ng/mL
O=C(Nc1ccc(F)c2c1nc1n2CCOC1)c1ccc(NS(=O)(=O)CCO)cc1N1CCC(=C(F)F)CC1 [Example 323, 2-(4-(difluoromethylene)piperidin-1-yl)-N-(6-fluoro-3,4-dihydro-1H-benzo[4,5]imidazo[2,1-c][1,4]oxazin-9-yl)-4-((2-hydroxyethyl)sulfonamide)benzamide] | ≥ 7.30 | – | ≥ 7.30 | AUC (PK study in ICR mice): 4113 ng·h/mL; Cmax (PK study in ICR mice): 762 ng/mL
CNc1cc(NS(=O)(=O)CCO)cc(N2CCC3(CC2)CC3)c1C(=O)Nc1ccc(OC)c(N2CCC(F)(F)CC2)n1 [Example 491, N-(6-(4,4-difluoropiperidin-1-yl)-5-methoxypyridin-2-yl)-4-((2-hydroxyethyl)sulfonamido)-2-(methylamino)-6-(6-azaspiro[2.5]oct-6-yl)benzamide] | 6.30 to 7.30 | ≥ 7.30 | – | AUC (PK study in ICR mice; [1]): 24800 ng·h/mL; Cmax (PK study in ICR mice; [2]): 2300 ng/mL
CC(C)Oc1ccc(NC(=O)c2ccc(NS(=O)(=O)CCO)cc2N2CCC3(CC2)CC3)c2cc3n(c12)CC(C)(C)OC3 [Example 531, 4-((2-hydroxyethyl)sulfonamido)-N-(6-isopropoxy-3,3-dimethyl-3,4-dihydro-1H-[1,4]oxazinyl[4,3-a]indol-9-yl)-2-(6-azaspiro[2.5]oct-6-yl)benzamide] | 6.30 to 7.30 | 6.30 to 7.30 | – | –
CC(C)Oc1ccc(NC(=O)c2ccc(NS(=O)(=O)CCO)cc2N2CCC(=C(F)F)CC2)c2cc3n(c12)CC(C)(C)OC3 [Example 532, 2-(4-(difluoromethylene)piperidin-1-yl)-4-((2-hydroxyethyl)sulfonamido)-N-(6-isopropoxy-3,3-dimethyl-3,4-dihydro-1H-[1,4]oxazinyl[4,3-a]indol-9-yl)benzamide] | 6.30 to 7.30 | – | 6.30 to 7.30 | –
CCOc1ccc(NC(=O)c2ccc(NS(=O)(=O)CCO)cc2N2CCC3(CC2)CC3)c2cc3n(c12)CC(C)(C)OC3 [Example 535, N-(6-ethoxy-3,3-dimethyl-3,4-dihydro-1H-[1,4]oxazino[4,3-a]indol-9-yl)-4-((2-hydroxyethyl)sulfonamido)-2-(6-azaspiro[2.5]octan-6-yl)benzamide] | 6.30 to 7.30 | ≥ 7.30 | – | AUC (PK study in ICR mice; [1]): 101000 ng·h/mL; Cmax (PK study in ICR mice; [2]): 8370 ng/mL
CCOc1ccc(NC(=O)c2ccc(NS(=O)(=O)CCO)cc2N2CCC(=C(F)F)CC2)c2cc3n(c12)CC(C)(C)OC3 [Example 536, 2-(4-(difluoromethylene)piperidin-1-yl)-N-(6-ethoxy-3,3-dimethyl-3,4-dihydro-1H-[1,4]oxazino[4,3-a]indol-9-yl)-4-((2-hydroxyethyl)sulfonamido)benzamide] | 6.30 to 7.30 | 6.30 to 7.30 | – | –
COc1ccc(C(=O)Nc2ccc(NS(=O)(=O)CCO)cc2N2CCC3(CC2)CC3)c2cc3n(c12)CC(C)(C)OC3 [Example 565] | 6.30 to 7.30 | – | ≥ 7.30 | –
COc1ccc(C(=O)Nc2ccc(NS(=O)(=O)CCO)cc2N2CCC(=C(F)F)CC2)c2cc3n(c12)CC(C)(C)OC3 [Example 566] | ≥ 7.30 | – | 6.30 to 7.30 | –
N-(1-(cyclopropylmethyl)-1H-indol-4-yl)-4-methoxy-2-(6-azaspiro[2.5]octan-6-yl)benzamide [Example 127] | ≥ 7.30 | – | ≥ 7.30 | –

Further lines, with some results ahead:

pIC50 (KIF18A) | pIC50 (OVCAR-3 cells; Homo sapiens, OVCAR-3, 240 h) | Compound | pIC50 (OVCAR-3 cells) | other results
≥ 7.30 | 6.30 to 7.30 | CC1(C)Cn2c(cc3c(NC(=O)c4ccc(NS(=O)(=O)CCO)cc4N4CCC5(CC4)CC5)ccc(OC(F)(F)F)c32)CO1 [Example 573] | – | –
6.30 to 7.30 | 6.30 to 7.30 | CC1(C)Cn2c(cc3c(NC(=O)c4ccc(NS(=O)(=O)CCO)cc4N4CCC(=C(F)F)CC4)ccc(OC(F)(F)F)c32)CO1 [Example 574] | – | –
6.30 to 7.30 | ≥ 7.30 | [2H]C([2H])([2H])Oc1ccc(NC(=O)c2ccc(NS(=O)(=O)CCO)cc2N2CCC3(CC2)CC3)c2cc3n(c12)CC(C)(C)OC3 [Example 575] | – | –
6.30 to 7.30 | ≥ 7.30 | [2H]C([2H])([2H])Oc1ccc(NC(=O)c2ccc(NS(=O)(=O)CCO)cc2N2CCC(=C(F)F)CC2)c2cc3n(c12)CC(C)(C)OC3 [Example 576] | – | –
≥ 7.30 | 6.30 to 7.30 | O=C(Nc1ccc(OC(F)(F)F)c2c1cc1n2CCC(F)(F)C1)c1ccc(NS(=O)(=O)CCO)cc1N1CCC2(CC1)CC2 [Example 582] | – | –
6.30 to 7.30 | ≥ 7.30 | O=C(Nc1ccc(OC(F)F)c2c1cc1n2CCC(F)(F)C1)c1ccc(NS(=O)(=O)CCO)cc1N1CCC2(CC1)CC2 [Example 583] | – | AUC (PK study in ICR mice; [1]): 43300 ng·h/mL; Cmax (PK study in ICR mice; [2]): 4410 ng/mL
6.30 to 7.30 | 6.30 to 7.30 | O=C(Nc1ccc(OC(F)(F)F)c2c1cc1n2CCC(F)(F)C1)c1ccc(NS(=O)(=O)CCO)cc1N1CCC(=C(F)F)CC1 [Example 585] | – | –
6.30 to 7.30 | 6.30 to 7.30 | O=C(Nc1ccc(OC(F)F)c2c1cc1n2CCC(F)(F)C1)c1ccc(NS(=O)(=O)CCO)cc1N1CCC(=C(F)F)CC1 [Example 586] | – | –
